We go through one molecule from publication PMC7568863 (Chemical biology & drug design, 2020).

The subject of test [1] is SKMEL28 melanoma cell line. The experiment in a line: Cell apoptosis assay. In kind it is cell-based. The note with it: IncuCyte Cytotox Green, Total Green Object Integrated Intensity; 30 h post-treatment; triplicates; preliminary assay.
In test [2] the test system is Bfl-1. The note with it: ref Barile et al., 2017; cited from earlier work.

Take `CC1(C)CCC(CN2CCN(c3ccc(C(=O)NS(=O)(=O)c4ccc(NCC5CCOCC5)c([N+](=O)[O-])c4)c(Oc4cnc5[nH]ccc5c4)c3)CC2)=C(c2ccc(Cl)cc2)C1` [ABT199]: in test [1], the “Induction of apoptosis / cell death in SKMEL28 cells” value was “inactive at the concentrations tested”. Also, the “Activity against Bfl-1” value in test [2] was “inactive against Bfl-1”.
